One compound from patent US20260015574A1, “METHODS FOR SHORTENING LAG PHASE DURATION IN MICROORGANISMS” (YEDA RESEARCH AND DEVELOPMENT CO. LTD., priority 2022, published 2026) can be followed below.

For one test, the system named is P. inhibens ΔmetE mutant. As to the kind of experiment: Lag phase shortening in ΔmetE mutant. The test is classed as cell-based, Phaeobacter inhibens. The settings on record: 2 μM DMSP, minimal media. How it is done: For creation of P. inhibens knockout cells, ˜1,000 bp regions upstream and downstream of the gene of interest were amplified by PCR (Phusion High-Fidelity DNA polymerase, Thermo Scientific), using primers that added homologous regions to gentamycin or kanamycin resistance markers. The fragments were assembled and cloned into the TOPOII vector (Invitrogen) using restriction-free cloning (Peleg Y. & Unger T., 2014), generating a knockout (KO) plasmid. P. inhibens electrocompetent cells (300 μl) were transformed with 10 μg of the constructed KO plasmid by a pulse of 1.8 kV (Bio Rad). Cells were selected on ½YTSS agar plates containing 30 μg/ml gentamycin or 150 μg/ml kanamycin. Successful knockouts in single cell clones were verified by PCR and sanger sequencing.
P. inhibens harbors another methionine synthase encoded by metE (FIGS. 1C and 4; gene 65). To test the possible contribution of this enzyme to lag phase shortening the inventors knocked-out the gene and examined the performance of the mutant strain. […] To further rule out the involvement of MetE in lag phase shortening, the inventors perturbed the function of MetE using an inhibitor of its methyl donor. To produce methionine, MetE utilizes 5-methyl-tetrahydrofolate (THF) as a methyl donor (Pejchal and Ludwig, 2005). THF is central in the process of bacterial nucleotide production (Quinlivan et al., 2000).

The subject of test [1] is methionine synthesis activity in P. inhibens protein crude extracts. As to the kind of experiment: Methionine synthesis activity assay with P. inhibens protein crude extracts. Type of test: biochemical, Phaeobacter inhibens. Conditions: crude extracts of stationary bacterial cells treated with 1 μM DMSP for 2 hours; LC/MS. How it is done:
The bacterium P. inhibens DSM 17395 was cultivated in 100 mL ASW with 5.5 mM glucose until reaching stationary phase, and then treated with 1 μM DMSP for 2 hours. Cell pellets of control and treated bacteria were harvested by 10 min centrifugation (15,000 rpm) at 4° C. The pellets were washed with buffer A (50 mM Hepes-KOH PH 7.5), resuspended in buffer B (50 mM Hepes-KOH PH 7.5, 10 mM β-mercaptoethanol, 1 mM EDTA) and disrupted by 5 min bead beating at 30 s^−1 with 300 mg silica beads (Mixer Mill MM-400, Retsch, Haan, Germany). The supernatant was collected by 5 min centrifugation (15,000 rpm). To measure the activity of enzymatic DMSP demethylation and methionine formation, 0.5 mL crude extract (1 mg/mL protein; determined with Bio-Rad protein assay, Hercules, California, U.S.) were incubated for 1 h with 1 mL Buffer C (60 mM PPB, 4.5 mM homocysteine, 4.5 mM DMSP, pH 7.5). The reaction mix was snap frozen in liquid nitrogen, and subsequently analyzed for product formation using LC/MS (FIG. 10).
To further elucidate the fate of methyl groups, the inventors analyzed the transcriptome of DMSP-treated P. inhibens bacteria during the lag phase, and compared it to untreated control cultures. […]

The test system of a further test is P. inhibens. As to the kind of experiment: Imaging flow cytometry of bacterial populations during the lag phase. The test is classed as cell-based, Phaeobacter inhibens. Conditions: DMSP-treated cultures. How it is done: The bacterial strain Phaeobacter inhibens DSM 17395 was purchased from the German collection of microorganisms and cell cultures (DSMZ, Braunschweig, Germany) and stored at −80° C. with 20% glycerol. Routine cultivation of P. inhibens was conducted at 30° C. in artificial seawater medium (ASW) based on Goyet and Poisson (1989). […] A 96-well Tecan Infinite M Plex plate reader was used for high-resolution monitoring of bacterial growth dynamics at 30° C. […] The growth of bacteria in co-culture with algae was monitored by counting colony forming units (CFU) on ½ YTSS agar plates. The growth of algae was monitored with a CellStream flow cytometer (Merck, Darmstadt, Germany).
To reflect the natural low bacterial abundance in the oligotrophic ocean with low microalgal productivity, the current bacterial growth experiments were routinely initiated with an optical density (OD) of 0.00001. […] To determine the actual length of the lag phase, the inventors analyzed bacterial cultures using imagining flow cytometry. […]

With `C[S+](C)CCC(=O)[O-]` [DMSP, dimethylsulfoniopropionate], the lag phase shortening entry in the test on P. inhibens ΔmetE mutant is on record as “exhibited lag phase shortening similar to wild-type bacteria”. Also, in test [1], the methionine synthesis activity result was “elevated”. Further, in the test with P. inhibens, the “time at which transition from aggregates to single-celled bacteria is concluded” value stood at 3 h.
